Experiment [1] concerns the target T1, human PPAR δ (Homo sapiens, UniProt Q03181).
T1 construct: expressed in transfected cells; host or cells: CV-1 cells
T1 sequence (Q03181 139-441): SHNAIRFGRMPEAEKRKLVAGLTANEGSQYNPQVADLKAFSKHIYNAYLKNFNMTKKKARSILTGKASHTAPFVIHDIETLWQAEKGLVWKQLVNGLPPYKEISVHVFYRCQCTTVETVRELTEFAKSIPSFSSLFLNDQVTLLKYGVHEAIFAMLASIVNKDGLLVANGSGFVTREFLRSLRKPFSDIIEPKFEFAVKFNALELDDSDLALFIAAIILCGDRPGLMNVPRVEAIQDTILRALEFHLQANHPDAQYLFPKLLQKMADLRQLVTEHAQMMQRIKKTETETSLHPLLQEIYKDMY
As to the kind of experiment: Luciferase assay using human PPAR δ (Gal4-PPAR δ ligand binding domain chimera, CV-1 cells). It is filed as cell-based. The note with it: relative value, carbacyclin at 30 μM defined as 1.

Experiment [2] has as its system Male mice (C57BL/6NCrj) loaded with a high-cholesterol feed. As to the kind of experiment: Lowering action for cholesterol in blood and lipid in blood, mice loaded with high-cholesterol feed. It is filed as in vivo. The conditions noted are these: relative value, medium group = 100%. Here is the method:
Lowering action for cholesterol in blood and lipid in blood:
Male mice of seven weeks age (C57BL/6NCrj) was loaded with a high-cholesterol feed (CRF-1 Solid Feed in which 5.5% of peanut oil, 1.5% of cholesterol and 0.5% of cholic acid were mixed; Oriental Bio Service) for six days, then body weight of the […] was measured under fasting and the following various parameter concentrations were measured. Measured items were LDL, HDL, TG value, NEFA and TC value. […] From the next day, a compound suspended in a medium (a 0.5% methyl cellulose solution) was compulsorily administered per os once daily for continuous six days and, at the same time, loading with the high cholesterol feed was continued as well. On the next day of the final administration (i.e., on the seventh day from the start of the administration), lipid levels in blood (TG, HDL, LDL, NEFA and TC values) were measured.
When the data were expressed as relative values where the value for the group to which a medium was administered was defined as 100%, a raising action for HDL and a lowering action for LDL of the compound produced in Example 9 (47) were as shown in Table 2.

The mark [3] stands for this setting: dose 3 mg/kg per os once daily for six days.
Where [4] appears, read: dose 10 mg/kg per os once daily for six days.
The mark [5] stands for this setting: dose 30 mg/kg per os once daily for six days.

Consider 1 molecule from US20100267778A1, “Diphenyl ether compound, process for producing the same, and use” (priority 2003, published 2010).

For the molecule `Cc1cc(Oc2ccc(C)cc2OCC#Cc2ccc(C(F)(F)F)cc2)cc(C(=O)O)c1` [Example 9 (47), 3-methyl-5-[4-methyl-2-({3-[4-(trifluoromethyl)phenyl]-2-propynyl}oxy)phenoxy]benzoic acid], the Transcription activation degree in experiment [1] (final concentration 0.1 μM) was found to be 0.73 Fold Increase; in experiment [1] (final concentration 0.3 μM), 1.09 Fold Increase; in experiment [1] (final concentration 1.0 μM) it was 1.02 Fold Increase. Also, the HDL-raising action was 112.0% in experiment [2] (setting [3]), 110.2% in experiment [2] (setting [4]) and 130.7% in experiment [2] (setting [5]). Also, the figures for the LDL-lowering action in experiment [2] (setting [3]), in experiment [2] (setting [4]) and in experiment [2] (setting [5]) were 89.7%, 85.3% and 84.4%, respectively.
